Like-named read-outs stand apart in the source and are kept apart here.
Legend:
A549 [1] = experiment: Cell cycle analysis by flow cytometry; format: cell-based, human; settings: IC50 concentration, 96 h
Procedure: (§1) CycleTEST™ PLUS DNA Reagent Kit (Becton Dickinson GmbH, Heidelberg, Germany) for cell cycle analysis was used, according to the instructions of the manufacturer. Briefly, the cells were harvested with trypsin, washed with PBS, and resuspended in CycleTEST Buffer. The cells were centrifuged and resuspended in solution A. After incubation for 10 min at room temperature, solution B was added and incubated. After adding solution C, the samples were incubated at 4°C protected from light. The samples were stored on ice and protected from light until analysis by FACScan flow cytometer (Becton Dickinson GmbH, Heidelberg, Germany).

HepG2 [2] = experiment: Cell cycle analysis by flow cytometry; format: cell-based, human; settings: IC50 concentration, 96 h
Procedure: as §1

GammaA3 [3] = experiment: MTS cell viability assay; format: cell-based, mouse
Procedure: (§2) Three human and eleven murine cancer cell lines were used. The human NSCLC cell line A549 (ACC 107) and the human colorectal carcinoma cell line CaCo2 (ACC 169) were obtained from Deutsche Sammlung von Mikroorganismen und Zellkulturen (DSMZ, Braunschweig, Germany). The human hepatocellular carcinoma cell line HepG2 (HB-8065) was obtained from American Type Culture Collection (Manassas, VA, USA). The 11 murine NSCLC cell lines were established as described recently. Cells were grown in monolayer cultures in DMEM containing 10% foetal calf serum, 4 mmol/l L-glutamine and 2% Penicillin/Streptomycin at 37°C in a humidified atmosphere of 95% air and 5% CO2.
(§3) Cell culture viability was monitored by CellTiter96® AQueous One Solution Cell Proliferation Assay (Promega GmbH, Mannheim, Germany). The cells were seeded in triplicates in 96-well microtitre plates and treated with the dual kinase inhibitors or vehicle (0.2% DMSO). After 24 h or 96 h of treatment the MTS tetrazolium reagent was added to the cells and incubated for 1 h. Absorbance at 490 nm was assayed with a Victor3 Wallac 1420 Multilabel counter (PerkinElmer, Waltham, MA, USA).

BetaD5 [4] = experiment: MTS cell viability assay; format: cell-based, mouse
Procedure: as §2, §3

A2C12 [5] = experiment: MTS cell viability assay; format: cell-based, mouse
Procedure: as §2, §3

GammaD12 [6] = experiment: MTS cell viability assay; format: cell-based, mouse; settings: MTS
Procedure: as §2, §3

A549 [7] = experiment: MTS cell viability assay; format: cell-based, human
Procedure: as §2, §3

HepG2 [8] = experiment: MTS cell viability assay; format: cell-based, human
Procedure: as §2, §3

CaCo2 [9] = experiment: MTS cell viability assay; format: cell-based, human
Procedure: as §2, §3

GammaA3 [10] = experiment: Cell cycle analysis by flow cytometry; format: cell-based, mouse; settings: IC50 concentration; for Cells in G1 phase / Cells in G2 phase / Cells in S phase: 96 h
Procedure: as §1

BetaD5 [11] = experiment: Cell cycle analysis by flow cytometry; format: cell-based, mouse; settings: IC50 concentration, 96 h
Procedure: as §1

A2C12 [12] = experiment: Cell cycle analysis by flow cytometry; format: cell-based, mouse; settings: IC50 concentration, 96 h
Procedure: as §1

GammaD12 [13] = experiment: Cell cycle analysis by flow cytometry; format: cell-based, mouse; settings: IC50 concentration, 96 h
Procedure: as §1

CaCo2 [14] = experiment: Cell cycle analysis by flow cytometry; format: cell-based, human; settings: IC50 concentration, 96 h
Procedure: as §1

[15] = 24 h, read-out: Calculated IC50 after single treatment for 24 h
[16] = 96 h, read-out: Calculated IC50 after daily treatment for 96 h
[17] = daily treatment 96 h, vs DMSO 0.2%

Structure (SMILES) | Cells in G1 phase (A549 [1]) [%] | Cells in G2 phase (A549 [1]) [%] | Cells in S phase (A549 [1]) [%] | IC50 (GammaA3 [3]; [15]) [µM] | IC50 (GammaA3 [3]; [16]) [µM] | IC50 (BetaD5 [4]; [15]) [µM] | IC50 (BetaD5 [4]; [16]) [µM] | IC50 (A2C12 [5]; [15]) [µM] | IC50 (A2C12 [5]; [16]) [µM] | IC50 (GammaD12 [6]; [15]) [µM] | IC50 (GammaD12 [6]; [16]) [µM] | IC50 (A549 [7]; [15]) [µM] | IC50 (A549 [7]; [16]) [µM] | IC50 (HepG2 [8]; [15]) [µM] | IC50 (HepG2 [8]; [16]) [µM] | IC50 (CaCo2 [9]; [15]) [µM] | IC50 (CaCo2 [9]; [16]) [µM] | Cells in G1 phase (BetaD5 [11]) [%] | Cells in G2 phase (BetaD5 [11]) [%] | Cells in S phase (BetaD5 [11]) [%] | further results
CSc1nc(NCc2ccccc2)c2cnn(CC(Cl)c3ccc(F)cc3)c2n1 (stereo not shown) [Si65] | 67.2 | 6.3 | 26.6 | 31.9 ± 1.6 | 9.9 ± 1.4 | 22.6 ± 1.9 | 10.6 ± 0.1 | 25.9 ± 4.3 | 8.6 ± 1.3 | 21 ± 1 | 7.1 ± 0.6 | 22.7 ± 0.6 | 8.2 ± 0.5 | 40.3 ± 0.9 | 9.1 ± 1.7 | 40.3 ± 0.9 | 5.7 ± 0.4 | 58.4 | 24.7 | 16.9 | Cells in G1 phase (HepG2 [2]): 62.7%; Cells in G2 phase (HepG2 [2]): 8.5%; Cells in S phase (HepG2 [2]): 28.1%; Cells in G1 phase (GammaA3 [10]): 68%; Cells in G2 phase (GammaA3 [10]): 17.3%; Cells in S phase (GammaA3 [10]): 14.6%; Cells in G1 phase (A2C12 [12]): 73.4%; Cells in G2 phase (A2C12 [12]): 10.4%; Cells in S phase (A2C12 [12]): 16.2%; Cells in G1 phase (GammaD12 [13]): 33%; Cells in G2 phase (GammaD12 [13]): 8.7%; Cells in S phase (GammaD12 [13]): 58.4%
CSc1nc(NCCc2ccccc2)c2cnn(CC(Cl)c3ccc(F)cc3)c2n1 (stereo not shown) [Si66] | 68.6 | 5.3 | 26.1 | 23.7 ± 2 | 9.1 ± 0.2 | 20.7 ± 0.4 | 10.3 ± 0.3 | 23.7 ± 2.2 | 6.9 ± 0.4 | 14.2 ± 1.7 | 4.8 ± 0.4 | 21.6 ± 2.6 | 7.1 ± 0.1 | 44.7 ± 5.9 | 8.2 ± 0.6 | 44.7 ± 5.9 | 6 ± 0.1 | 52.7 | 25.6 | 21.7 | Cells in G1 phase (HepG2 [2]): 61.1%; Cells in G2 phase (HepG2 [2]): 9.2%; Cells in S phase (HepG2 [2]): 29.8%; Cells in G1 phase (CaCo2 [14]): 61%; Cells in G2 phase (CaCo2 [14]): 5.8%; Cells in S phase (CaCo2 [14]): 33.3%; Cells in G1 phase (GammaA3 [10]): 58.4%; Cells in G2 phase (GammaA3 [10]): 18.5%; Cells in S phase (GammaA3 [10]): 23.1%; Cells in G1 phase (A2C12 [12]): 65.3%; Cells in G2 phase (A2C12 [12]): 11.8%; Cells in S phase (A2C12 [12]): 22.9%; Cells in G1 phase (GammaD12 [13]): 32.1%; Cells in G2 phase (GammaD12 [13]): 6.7%; Cells in S phase (GammaD12 [13]): 61.5%
CSc1nc(NCc2ccccc2)c2cnn(CC(Cl)c3ccc(Cl)cc3)c2n1 (stereo not shown) [Si70] | 77.3 | 4.1 | 18.6 | 40.7 ± 6.2 | 13.5 ± 1.1 | 31 ± 5.1 | 11 ± 0.3 | 68.5 ± 16.8 | 9.2 ± 0.3 | 21.6 ± 1.6 | 7.9 ± 3.4 | 96 ± 35.1 | 10.2 ± 0.5 | 82.1 ± 5.3 | > 100 | 82.1 ± 5.3 | 7.6 ± 0.3 | 56.6 | 25.7 | 17.7 | Cells in G1 phase (CaCo2 [14]): 65.9%; Cells in G2 phase (CaCo2 [14]): 6.8%; Cells in S phase (CaCo2 [14]): 27.3%; Cells in G1 phase (GammaA3 [10]): 89%; Cells in G2 phase (GammaA3 [10]): 8.2%; Cells in S phase (GammaA3 [10]): 2.8%; Decrease in the S-phase compared to the vehicle treatment (GammaA3 [10]; [17]): up to 91%; Increase in G0/G1 compared to the vehicle treatment (GammaA3 [10]; [17]): up to 92%; Cells in G1 phase (A2C12 [12]): 63.3%; Cells in G2 phase (A2C12 [12]): 10.1%; Cells in S phase (A2C12 [12]): 26.6%; Cells in G1 phase (GammaD12 [13]): 43.7%; Cells in G2 phase (GammaD12 [13]): 7.7%; Cells in S phase (GammaD12 [13]): 48.7%
CSc1nc(NCc2ccccc2)c2cnn(CC(Br)c3ccccc3)c2n1 (stereo not shown) [Si81] | 62.8 | 6.3 | 30.9 | 26.8 ± 1.5 | > 20 | 20.6 ± 4 | 19.5 ± 3.1 | 30.8 ± 2.5 | 12.1 ± 2.1 | 17.4 ± 2.6 | 14.1 ± 0.2 | > 100 | 11.2 ± 1 | 72.9 ± 6.4 | 22.6 ± 4.3 | 72.9 ± 6.4 | 7.5 ± 0.2 | 61.9 | 22 | 16.1 | Cells in G1 phase (HepG2 [2]): 58.8%; Cells in G2 phase (HepG2 [2]): 9.5%; Cells in S phase (HepG2 [2]): 31.7%; Cells in G1 phase (CaCo2 [14]): 58.7%; Cells in G2 phase (CaCo2 [14]): 6.9%; Cells in S phase (CaCo2 [14]): 34.3%; Cells in G1 phase (A2C12 [12]): 66.7%; Cells in G2 phase (A2C12 [12]): 10.7%; Cells in S phase (A2C12 [12]): 22.6%; Cells in G1 phase (GammaD12 [13]): 33.3%; Cells in G2 phase (GammaD12 [13]): 8.8%; Cells in S phase (GammaD12 [13]): 57.9%
